In this series the target is CYP3A4 (Homo sapiens, UniProt P08684). Kind of series: CYP inhibition in HLM: R-warfarin 10-hydroxylation. The series is classed as in vitro ADME. The settings on record: 10 or 50 μM. Set-up: tissue Gentest Corp. (Woburn, Mass.); host or cells: pooled human liver microsomes. The procedure:
The incubations were carried out in test tubes (12.0×75 mm). The incubation mixtures (250 μL) contained 0.5 mg of HLM protein, 50 (CYP1A2 and CYP2E1) or 25 (CYP2C9, CYP2C19, CYP2D6 and CYP3A4) pmol of recombinant human CYPs, Compound 1 (10 or 50 μM), probe substrate (R—, S-warfarin, chlorzoxazone, S-mephenyloin, or bufuralol) at different concentrations, and 0.5 mg of NADPH in 50 mM Tris buffer containing 15 mM MgCl2 (pH 7.4). Compound 1 was added to the reaction mixture 5 minutes prior to the addition of the probe substrate. […]
The quantification was based on the calibration curves, and the quality control (QC) samples were applied to ensure the quality of the experiments. […]
1. CYP1A2/2C9/3A4-mediated warfarin 6-, 7-, 8-, and 10-hydroxylation (Zhang et al., Drug Metab. Dispos. 23:1339-1346, 1995; Rettie et al., Chem. Res. Toxicol. 5:54-59, 1992; Brian et al., Biochemistry 29:11280-11292, 1990): Hewlett Packard 1100 HPLC system (Waldbronn, Germany) comprised a binary pump, an autosampler, a column compartment unit, a photodiode array detector (PDA), and a fluorescence detector. […] The warfarin metabolites, 6-, 8-, and 10-hydroxywarfarin, were monitored by UV at 313 nm, and 7-hydroxywarfarin by fluorescence at Ex320 nm/Em380 nm. […]

Each structure is given as a SMILES string.

CYP3A4, sequence (P08684 whole entry): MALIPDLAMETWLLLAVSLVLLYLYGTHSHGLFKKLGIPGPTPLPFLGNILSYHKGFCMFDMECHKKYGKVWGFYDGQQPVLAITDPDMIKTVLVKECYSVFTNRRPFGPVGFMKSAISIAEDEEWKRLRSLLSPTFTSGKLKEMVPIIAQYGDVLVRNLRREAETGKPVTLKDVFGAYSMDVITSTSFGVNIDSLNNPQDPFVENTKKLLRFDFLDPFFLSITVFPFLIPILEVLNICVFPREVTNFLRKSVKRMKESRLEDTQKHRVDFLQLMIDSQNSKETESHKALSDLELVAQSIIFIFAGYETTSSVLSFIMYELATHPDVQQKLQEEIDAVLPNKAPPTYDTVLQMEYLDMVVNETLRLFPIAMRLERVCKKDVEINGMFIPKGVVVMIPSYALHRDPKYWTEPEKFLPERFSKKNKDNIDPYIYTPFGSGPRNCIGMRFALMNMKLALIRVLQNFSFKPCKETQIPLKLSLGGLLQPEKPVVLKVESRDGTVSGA

Consider `CNC(=O)Cc1ccc2ccn(C3CCN(CCc4ccccc4F)CC3)c2c1` [Compound 1, N-methyl-[1-[1-(2-fluorophenethyl)piperidine-4-yl]-1H-indol-6-yl] acetamide], for which the “inhibitory effect on CYP3A4 activity (in words)” value is listed as “no inhibitory effect”.

(Values after patent US20050033056A1, “Hydroxylated indole derivatives and uses thereof” (priority 2001, published 2005).)
